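Compound exposure: 48 hours, 5 concentrations, 96-well plates. GI50: concentration for 50% inhibition of growth. The concentration for full growth arrest is given as TGI.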
Columns and labels:
Assay in all cases: DTP human tumour cell line panel, 48 h
[1] = tested on: DU-145 prostate
[2] = tested on: UACC-62 melanoma
[3] = tested on: BT-549 breast
[4] = tested on: NCI-H460 lung
[5] = tested on: SK-MEL-5 melanoma
[6] = tested on: MOLT-4 leukemia
[7] = tested on: HCC-2998 colon
[8] = tested on: NCI/ADR-RES ovarian
[9] = tested on: T-47D breast
[10] = tested on: SF-539 CNS
[11] = tested on: COLO 205 colon
[12] = tested on: MCF7 breast
[13] = tested on: 786-0 renal
[14] = tested on: NCI-H522 lung
[15] = tested on: EKVX NSCLC
[16] = tested on: SK-MEL-2 melanoma
[17] = tested on: HS 578T breast
[18] = tested on: RXF 393 renal
[19] = tested on: SNB-75 CNS
[20] = tested on: HCT-15 colon
[21] = tested on: UACC-257 melanoma
[22] = tested on: SN12C renal
[23] = tested on: NCI-H226 lung
[24] = tested on: IGROV1 ovarian
[25] = tested on: TK-10 renal
[26] = tested on: A549 NSCLC
[27] = tested on: SNB-19 CNS
[28] = tested on: LOX IMVI melanoma
[29] = tested on: NCI-H23 lung
[30] = tested on: OVCAR-3 ovarian
[31] = tested on: HOP-92 NSCLC
[32] = tested on: MDA-MB-231 breast
[33] = tested on: OVCAR-8 ovarian
[34] = tested on: MDA-MB-435
[35] = tested on: RPMI-8226 leukemia
[36] = tested on: UO-31 renal
[37] = tested on: SK-OV-3 ovarian
[38] = tested on: MALME-3M melanoma
[39] = tested on: HCT-116 colon
[40] = tested on: HT29 colon
[41] = tested on: K-562 leukemia
[42] = tested on: HOP-62 NSCLC
[43] = tested on: ACHN renal
[44] = tested on: HL-60(TB) leukemia
[45] = tested on: SK-MEL-28 melanoma
[46] = tested on: U251 CNS
[47] = tested on: SF-268 CNS
[48] = tested on: CAKI-1 renal
[49] = tested on: KM12 colon
[50] = tested on: OVCAR-5 ovarian
[51] = tested on: A498 renal
[52] = tested on: SW-620 colon
[53] = tested on: OVCAR-4 ovarian
[54] = tested on: SF-295 CNS
[55] = tested on: M14 melanoma
[56] = tested on: PC-3 prostate
[57] = tested on: CCRF-CEM leukemia

Cc1ccc2c(C(C[N+](=O)[O-])c3ccco3)c(-c3ccccc3)[nH]c2c1 (centres undefined)
GI50 [1]: 74.4 µM | TGI [1]: > 100 µM | GI50 [2]: 26.8 µM | TGI [2]: > 100 µM | GI50 [3]: 48.8 µM | TGI [3]: > 100 µM | GI50 [4]: 26.7 µM | TGI [4]: > 100 µM | GI50 [5]: 29.7 µM | TGI [5]: > 100 µM | GI50 [6]: 30.7 µM | TGI [6]: > 100 µM | GI50 [7]: > 100 µM | TGI [7]: > 100 µM | GI50 [8]: 11.7 µM | TGI [8]: > 100 µM | GI50 [9]: 23 µM | TGI [9]: > 100 µM | GI50 [10]: 30.6 µM | TGI [10]: > 100 µM | GI50 [11]: 31.7 µM | TGI [11]: > 100 µM | GI50 [12]: 9.09 µM | TGI [12]: > 100 µM | GI50 [13]: 41.3 µM | TGI [13]: > 100 µM | GI50 [14]: 3.92 µM | TGI [14]: > 100 µM | GI50 [15]: 55 µM | TGI [15]: > 100 µM | GI50 [16]: 38.2 µM | TGI [16]: > 100 µM | GI50 [17]: 17.5 µM | TGI [17]: > 100 µM | GI50 [18]: 32.2 µM | TGI [18]: > 100 µM | GI50 [19]: 4.75 µM | TGI [19]: 71 µM | GI50 [20]: 7.28 µM | TGI [20]: > 100 µM | GI50 [21]: > 100 µM | TGI [21]: > 100 µM | GI50 [22]: 47.8 µM | TGI [22]: > 100 µM | GI50 [23]: > 100 µM | TGI [23]: > 100 µM | GI50 [24]: 24.6 µM | TGI [24]: > 100 µM | GI50 [25]: 12.3 µM | TGI [25]: > 100 µM | GI50 [26]: 48.3 µM | TGI [26]: > 100 µM | GI50 [27]: 59 µM | TGI [27]: > 100 µM | GI50 [28]: 44.2 µM | TGI [28]: > 100 µM | GI50 [29]: 64.5 µM | TGI [29]: > 100 µM | GI50 [30]: 22.8 µM | TGI [30]: > 100 µM | GI50 [31]: > 100 µM | TGI [31]: > 100 µM | GI50 [32]: 27.1 µM | TGI [32]: > 100 µM | GI50 [33]: 84.8 µM | TGI [33]: > 100 µM | GI50 [34]: 3.04 µM | TGI [34]: 10.8 µM | GI50 [35]: 53.7 µM | TGI [35]: > 100 µM | GI50 [36]: 33.1 µM | TGI [36]: > 100 µM | GI50 [37]: 37.2 µM | TGI [37]: > 100 µM | GI50 [38]: 21.8 µM | TGI [38]: > 100 µM | GI50 [39]: 19.8 µM | TGI [39]: > 100 µM | GI50 [40]: > 100 µM | TGI [40]: > 100 µM | GI50 [41]: 5.19 µM | TGI [41]: > 100 µM | GI50 [42]: 16 µM | TGI [42]: > 100 µM | GI50 [43]: 41.4 µM | TGI [43]: > 100 µM | GI50 [44]: 28.3 µM | TGI [44]: > 100 µM | GI50 [45]: 98.9 µM | TGI [45]: > 100 µM | GI50 [46]: 46.2 µM | TGI [46]: > 100 µM | GI50 [47]: > 100 µM | TGI [47]: > 100 µM | GI50 [48]: 5.63 µM | TGI [48]: > 100 µM | GI50 [49]: 21.5 µM | TGI [49]: > 100 µM | GI50 [50]: > 100 µM | TGI [50]: > 100 µM | GI50 [51]: 4.02 µM | TGI [51]: 74.3 µM | GI50 [52]: 11.4 µM | TGI [52]: > 100 µM | GI50 [53]: 69 µM | TGI [53]: > 100 µM | GI50 [54]: 21.9 µM | TGI [54]: > 100 µM | GI50 [55]: 12.2 µM | TGI [55]: > 100 µM | GI50 [56]: 39.2 µM | TGI [56]: > 100 µM | GI50 [57]: 34.1 µM | TGI [57]: > 100 µM

Reference: PubChem BioAssay (NCI)
